Measured values as given in US20050209157A1, “Short bioactive peptides and methods for their use” (priority 2001, published 2005).
In brackets after ≈: the same amount, converted by molar mass. No end group written: not given here.

Legend:
[1] = test system: human leukocyte (WBC) cells; test: Stimulation and proliferation of leukocytes, Alamar Blue; type: cell-based; conditions: 48 hours
Description: In vitro viability of human leukocyte cells in the presence of different peptides at different concentrations was determined by an Alamar Blue protocol. Alamar Blue (Promega, Madison, Wis.) is an indicator dye, formulated to measure quantitatively the proliferation and cytotoxicity of the cells. The dye consists of an oxidation-reduction (redox) indicator that yields a calorimetric change and a fluorescent signal in response to cellular metabolic activity.
Assay protocol: Blood from a human was drawn and centrifuged at 1500 rpm for 15 minutes at room temperature. The buffy coat cells at the plasma-red blood cell interface were aspirated. Buffy coat cells (mainly lymphocyte cells) were then transferred into 15 ml centrifuge tubes containing 5 ml of RPMI-1640 medium+10% Fetal Bovine Serum (Gibco, Grand Island, N.Y.). Additional medium was added to the tubes to bring the volume up to 10 ml. The buffy coat suspension was then carefully layered on 5 ml of Histopaque (Sigma Chemical Co., St. Louis, Mo.) and centrifuged at 1500 rpm for 30 minutes at room temperature. The interface which is mostly PBMCs (peripheral mononuclear cells) was aspirated and transferred to a 15 ml conical centrifuge tube and, resuspended in 2 ml cold RPMI-1640 and brought up to 15 ml with cold RPMI-1640 medium. Cells were centrifuged at 1500 rpm for 10 minutes. The supernatant was then aspirated and discarded. The cell pellet was re-suspended in 1 ml of cold RPMI 1640 and brought up to 15 ml with RPMI medium. This step was repeated twice, except that in the last step, the cells were resuspended with 1 ml of cold RPMI-1640 medium and cell counts were performed with a hemocytometer according to the Sigma cell culture catalogue.
Pokewood mitogen was used as a control along with positive and negative controls. Negative control cells were killed with 70% methanol. Positive (+) control cells were incubated in RPMI medium (untreated). […] of AlamarBlue was added to the cells, and readings were taken after 24 hours, 48 hours, 72 hours, and 96 hours using a fluorimeter (excitation 544/transmission 590 nm).
Calculations were performed using the following formula. The peptide treated sample and positive control were adjusted for negative control. [formula]
Using the protocol described immediately above, about 100-150 peptides were screened for their stimulatory and/or inhibitory actions upon the growth of human leukocyte (“WBC”) cells as compared to the growth of untreated positive control cells.
The Alamar Blue stain used in the protocol permeates both cell and nuclear membranes, and is metabolized in the mitochondria to cause the change in color. The resulting fluorometric response is therefore a result of total mitochondrial activity caused by cell stimulation and/or mitosis (cell proliferation).

[2] = test system: human red blood cells (RBC); test: in vitro; type: cell-based; conditions: for Peptide toxicity RBC LD/50: human red blood cells; for LD50: hemolytic assay, concentration at 50% hemolysis, 1 hour at 37° C.
in vitro = conditions: human, WI38 normal lung fibroblast cells
WI38 = conditions: MTT, 24 hours with peptide; normal fibroblast line
H1299 = test: Anti-cancer assay, MTT, LD50; type: cell-based; conditions: 24 hours with peptide, lung large cell carcinoma
Text: (§1) Numbers are LD50 values (μg/mL).

HeLaS3 = test: Anti-cancer assay, MTT, LD50; type: cell-based; conditions: 24 hours with peptide, cervical carcinoma
Text: as §1

BMKC = test: Anti-cancer assay, MTT, LD50; type: cell-based; conditions: BMKC cloned melanoma line, 24 hours with peptide
Text: as §1

MCF7 = test: Anti-cancer assay, MTT, LD50; type: cell-based; conditions: MCF7 breast adenocarcinoma line, MTT, 24 hours with peptide
Text: as §1

SW480 = test: Anti-cancer assay, MTT, LD50; type: cell-based; conditions: SW480 colon adenocarcinoma line, 24 hours with peptide
Text: as §1

PC3 = test: Anti-cancer assay, MTT, LD50; type: cell-based; conditions: 24 hours with peptide, prostate adenocarcinoma
Text: as §1

[3] = test system: Staphylococcus aureus ATCC 6538; test: Antimicrobial assay I, MIC by OD measurement; type: cell-based; conditions: 37° C. for 24 hours, absorbance 620 nm
[4] = test system: Pseudomonas aeruginosa ATCC 9027; test: Antimicrobial assay I, MIC by OD measurement; type: cell-based; conditions: 37° C. for 24 hours, absorbance 620 nm
[5] = test system: yeast (Saccharomyces cerevisiae); test: Antimicrobial assay I, yeast assay in RPMI 1640; type: cell-based; conditions: RPMI 1640 media
[6] = Peptide toxicity WI-38 LD/50, human fibroblast cells
[7] = LD50 WI38, WI38 normal lung fibroblast line, MTT, 24 hours with peptide

Compound | Peptide treated cell activity Percent stimulation relative to control ([1]; 0.1 ug/ml) [%] | Peptide treated cell activity Percent stimulation relative to control ([1]; 1 ug/ml) [%] | Peptide treated cell activity Percent stimulation relative to control ([1]; 10 ug/ml) [%] | Peptide treated cell activity Percent stimulation relative to control ([1]; 100 ug/ml) [%] | Peptide treated cell activity Percent stimulation relative to control ([1]; 500 ug/ml) [%] | Peptide toxicity RBC LD/50 [2] | CC50 at 24 h (in vitro; [6]) [µg/mL] | CC50 at 24 h (in vitro) [µg/mL] | WI38 LD50 (WI38) [µg/mL] | CC50 at 24 h (in vitro; [7]) [µg/mL] | H1299 LD50 (H1299) | HeLaS3 LD50 (HeLaS3) | LD50 BMKC (BMKC) [µg/mL] | LD50 MCF7 (MCF7) [µg/mL] | LD50 SW480 (SW480) | PC3 LD50 (PC3) | staph6538 (MIC) [3] [µg/mL] | paerug9027 (MIC) [4] | yeast (MIC or MFC) [5] | LD50 [2]
FAKLLALALKKAL-NH2 [compound 165] | 107 | 109 | 106 | 27 | 22 | 350 |  |  |  |  |  |  |  |  |  |  |  |  |  | 
MPKEKVFLKIEKMGRNIRN-NH2 [compound 71] | 101 | 100 | 108 | 109 | 110 | >1000 | > 1000 |  |  |  |  |  |  |  |  |  |  |  |  | 
FAKLLAKALKKAL-NH2 [compound 66] | 100 | 102 | 97 | 37 | 17 | 500 | 210 |  |  |  |  |  |  |  |  |  |  |  |  | 
FALALKALKKLKKALKKAL-NH2 [compound 12] | 108 | 110 | 99 | 30 | 23 | 125 | 37 |  |  |  |  |  |  |  |  |  |  |  |  | 
FAKALAKLAKKLL-NH2 [compound 58] | 112 | 112 | 98 | 35 | 26 | 300 | 25 |  |  |  |  |  |  |  |  |  |  |  |  | 
FALALKALKKLAKKLKKLAKKAL-NH2 [compound 10] | 117 | 104 | 99 | 27 | 27 | 60 | 24 |  |  |  |  |  |  |  |  |  |  |  |  | 
VAKLLAKLAKKLL-NH2 [compound 30] | 74 | 68 | 62 | 13 | 13 | 130 | 60 |  |  |  |  |  |  |  |  |  |  |  |  | 
MPKWKVFKKIEKVGRNIRNGIVKAGPAIAVLGEAKALG-NH2 [compound 5] | 111 | 115 | 118 | 116 | 101 | >1000 | 950 |  |  |  |  |  |  |  |  |  |  |  |  | 
FALKALKKLKKALKKAL-NH2 [compound 115] | 93 | 92 | 37 | 72 | 29 | 780 | 130 |  |  |  |  |  |  |  |  |  |  |  |  | 
FAKKFAKKFKKFAKKFAKFAFAF-NH2 [compound 147] | 100 | 94 | 83 | 22 | 20 | 10 |  | 66 |  |  |  |  |  |  |  |  |  |  |  | 
CC(C)C[C@H](NC(=O)[C@H](C)NC(=O)[C@H](CC(C)C)NC(=O)[C@H](CCCCN)NC(=O)[C@H](C)NC(=O)[C@H](CC(C)C)NC(=O)[C@H](CCCCN)NC(=O)[C@H](CCCCN)NC(=O)[C@H](C)NC(=O)[C@H](CC(C)C)NC(=O)[C@H](CCCCN)NC(=O)[C@H](C)NC(=O)[C@H](CC(C)C)NC(=O)[C@H](CCCCN)NC(=O)[C@H](CCCCN)NC(=O)[C@H](C)NC(=O)[C@@H](N)Cc1ccccc1)C(N)=O [compound 17] | 82 | 76 | 61 | 18 | 16 | 200 | 8 (≈ 4.31 µM) |  |  |  |  |  |  |  |  |  |  |  |  | 
LPKWKVFKKIEKVGRNIRNGIVKAGPAIAVLGEAKALG-NH2 [compound 150] | 97 | 101 | 94 | 109 | 112 | >1000 | 320 |  |  |  |  |  |  |  |  |  |  |  |  | 
FAKKLAKLAKKLLAL-NH2 [compound 20] | 79 | 82 | 78 | 37 | 36 | 350 | 12 |  |  |  |  |  |  |  |  |  |  |  |  | 
FALALKLAKKL-NH2 [P178] |  |  |  |  |  |  |  |  | 405 | 405 | > (> indicates greater than 1000) | > (> indicates greater than 1000) | 640 | 770 | > (> indicates greater than 1000) | > (> indicates greater than 1000) | 200 | 100 µg/mL | > (> indicates greater than 200 μg/mL) | > (> indicates greater than 1000)
VALALKALKKL-NH2 [P180] |  |  |  |  |  |  |  |  | 940 | 940 | > (> indicates greater than 1000) | 760 µg/mL | 770 | 950 | 600 µg/mL | > (> indicates greater than 1000) | 200 | > (> indicates greater than 200 μg/mL) | > (> indicates greater than 200 μg/mL) | > (> indicates greater than 1000)
FAKLFAKLAKKFAL-NH2 [P121, FAKLFAKLAKKFAL-NH2] |  |  |  |  |  |  |  |  | 625 | 625 | 460 µg/mL | 830 µg/mL | 670 | 400 | 800 µg/mL | > (> indicates greater than 1000) | 50 | > (> indicates greater than 200 μg/mL) | 100 µg/mL | > (> indicates greater than 1000)
